This test concerns HGPS patients. Kind of test: Kaplan-Meier survival analysis of treated vs. untreated HGPS patients. Type of test: in vivo, human. The text has this: Survival data of untreated subjects was collected from hospital case studies, newspaper articles, and other publicly available databases. “Untreated subjects” were defined as HGPS-diagnosed subjects who had no exposure to HGPS clinical treatment trial medications. In total, data from 155 subjects; including 100 deceased and 55 living, was used in the analysis, the cut-off date for which was Dec. 3, 2012.
“Treated subjects” were defined as all subjects who were enrolled in one or both of two HGPS farnesyltransferase inhibitor (FTI) clinical treatment trials to date, for any length of time. Treatment conditions for the initial, FTI-only, trial are described in Gordon et al., PNAS, 109:16666/16671, 2012. Treatment conditions for the three-drug combination of lonafarnib, pravastatin, and zoledronic acid, are described in Example 1. In total data from 43 subjects; including 4 deceased and 39 living, was included in the analysis.
Kaplan-Meier survival analyses were carried out using SAS statistical analysis software.

Molecules are shown by their SMILES.

In the case of `NC(=O)N1CCC(CC(=O)N2CCC([C@H]3c4ncc(Br)cc4CCc4cc(Cl)cc(Br)c43)CC2)CC1` [FTI, lonafarnib], where the note is “all subject groupings of FIG. 5, FTI only or with pravastatin and zoledronic acid”, the “Mean years of survival, treated vs. untreated” value was “significant increase in mean years of survival”. The “Survival of treated vs. untreated patients (Kaplan-Meier)” value (entire sample, 43 treated (FTI only or with pravastatin and zoledronic acid) vs. 155 untreated, FIG. 1) is listed as “significant survival benefit”.

(Values after patent US9381203B2, “Combination therapies for treatment of laminopathies, cellular aging, and atherosclerosis” (priority 2013, dated 2016).)
